Measured values as given in ChEMBL document CHEMBL1201862, “PubChem BioAssay data set” (2004).
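Method: 48-hour compound exposure of cells in 96-well plates, five concentrations, linear interpolation of endpoints. GI50 is the concentration that inhibits growth by half.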 The source made the active and inactive calls. Cut-off read from the data, not from the text of the source: active = GI50 up to about 1.1 µM and inactive = higher.

What was measured:
Experiment in all cases: growth of human tumour cells (NCI), 48 h
SNB-78 = test system: SNB-78
Malme-3M = test system: Malme-3M
NCI-H226 = test system: NCI-H226
HCT-15 = test system: HCT-15
NCI/ADR-RES = test system: NCI/ADR-RES
NCI-H23 = test system: NCI-H23
COLO 205 = test system: COLO 205
SK-MEL-5 = test system: SK-MEL-5
KM12 = test system: KM12
MCF7 = test system: MCF7
SF-539 = test system: SF-539
786-0 = test system: 786-0
T47D = test system: T47D
BT-549 = test system: BT-549
Hs-578T = test system: Hs-578T
MDA-MB-435 = test system: MDA-MB-435
MDA-MB-231 = test system: MDA-MB-231
DU-145 = test system: DU-145
MDA-N = test system: MDA-N
PC-3 = test system: PC-3

SMILES | GI50 (SNB-78) | GI50 (Malme-3M) | GI50 (NCI-H226) | GI50 (HCT-15) | GI50 (NCI/ADR-RES) | GI50 (NCI-H23) | GI50 (COLO 205) | GI50 (SK-MEL-5) | GI50 (KM12) | GI50 (MCF7) | GI50 (SF-539) | GI50 (786-0) | GI50 (T47D) | GI50 (BT-549) | GI50 (Hs-578T) | GI50 (MDA-MB-435) | GI50 (MDA-MB-231) | GI50 (DU-145) | GI50 (MDA-N) | GI50 (PC-3)
Nc1ccc2cc(S(=O)(=O)O)cc(O)c2c1/N=N/c1ccc(NC(=O)Nc2ccc(/N=N/c3c(N)ccc4cc(S(=O)(=O)O)cc(O)c34)c(S(=O)(=O)O)c2)cc1S(=O)(=O)O | 97.7 µM (inactive) | > 100 µM (inactive) | > 100 µM (inactive) | > 91.2 µM | > 100 µM (inactive) | > 100 µM (inactive) | > 100 µM (inactive) | > 100 µM (inactive) | > 100 µM (inactive) | > 100 µM (inactive) | > 100 µM (inactive) |  |  |  |  |  |  |  |  | 
COc1ccc2c(c1)[n+]([O-])c(C(C)=O)c(C)[n+]2[O-] | > 100 µM (inactive) | > 100 µM (inactive) | > 100 µM (inactive) | > 100 µM |  | > 100 µM (inactive) | > 100 µM (inactive) | > 100 µM (inactive) | > 100 µM (inactive) |  | > 100 µM (inactive) | > 100 µM (inactive) |  |  |  |  |  |  |  | 
N/C(=N\O)N/N=C/c1cc2c(cc1Cl)OCO2 | > 68.2 µM (inactive) | > 100 µM (inactive) | 29.1 µM (inactive) | 13.7 µM | 18 µM (inactive) | 58.1 µM (inactive) | 33.3 µM (inactive) | 24.2 µM (inactive) | 29.5 µM (inactive) | 22.3 µM (inactive) | 31.8 µM (inactive) |  |  |  |  |  |  |  |  | 
Cc1ccccc1NC(=O)CSc1nnc(Cc2ccccc2)o1 | > 100 µM (inactive) | > 100 µM (inactive) | > 100 µM (inactive) | > 100 µM |  | > 100 µM (inactive) | > 100 µM (inactive) | > 100 µM (inactive) | > 100 µM (inactive) |  | > 100 µM (inactive) | > 100 µM (inactive) |  |  |  |  |  |  |  | 
O=C(CCCN1CCC(C(O)c2ccc(F)cc2)CC1)c1ccc(F)cc1 (stereo not drawn) | 56.9 µM (inactive) | 55.3 µM (inactive) | 53.3 µM (inactive) | 62.2 µM | 66.5 µM (inactive) | 66.5 µM (inactive) | 55.7 µM (inactive) | 46.7 µM (inactive) | 56.6 µM (inactive) | 64.9 µM (inactive) | 59.4 µM (inactive) | 44.9 µM (inactive) | 56.1 µM (inactive) | 45.4 µM (inactive) | 46.1 µM (inactive) | 57 µM (inactive) | 39.8 µM (inactive) | 61.9 µM (inactive) | 61 µM (inactive) | 47.1 µM (inactive)
Cc1c2c(cc3c1[nH]c1ccccc13)C(c1ccc(Cl)cc1)=NCC2 | 0.682 µM (active) | 1.83 µM (inactive) | 1.3 µM (inactive) | 0.416 µM | 0.264 µM (active) | 0.368 µM (active) | 0.41 µM (active) | 0.343 µM (active) | 0.274 µM (active) | 0.236 µM (active) | 0.667 µM (active) |  |  |  |  |  |  |  |  | 
Cn1c(=O)c2nc3sc4c(n3c2n(C)c1=O)C(=O)c1ccccc1C4=O | > 100 µM (inactive) | > 90.2 µM (inactive) | 65.8 µM (inactive) | > 59.6 µM | 19 µM (inactive) | 57.3 µM (inactive) | > 73.5 µM (inactive) | > 75 µM (inactive) | > 100 µM (inactive) | > 25.9 µM (inactive) | > 61.7 µM (inactive) | > 68.1 µM (inactive) | 0.893 µM (active) | > 44.7 µM (inactive) | 23.3 µM (inactive) | > 28.4 µM (inactive) | > 42.4 µM (inactive) | > 65 µM (inactive) | > 64.3 µM (inactive) | > 42 µM (inactive)
COc1c(CC(C)O)c2c3c(CC(C)O)c(OC)c(=O)c4c(O)cc5c(c6c(cc(O)c(c1=O)c62)OCO5)c43 (stereo not drawn) [CERCOSPORIN] | 2.15 µM (inactive) | 0.374 µM (active) | 2.29 µM (inactive) | 1.56 µM |  | 1.4 µM (inactive) | 0.158 µM (active) | 1.52 µM (inactive) | 1.62 µM (inactive) |  | 2.13 µM (inactive) | 2.66 µM (inactive) |  |  |  |  |  |  |  | 
